This passage reports TGI and GI50 results from PubChem BioAssay (NCI).

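1) Cells in 96-well plates. 2) Compound, 48 h, 5 concentrations. 3) Linear interpolation between surrounding doses. 4) Unreached endpoint = highest concentration. GI50 = concentration required for 50% inhibition of growth. The concentration for full growth arrest is given as TGI.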

Common to all, as to assay: growth of human tumour cells (NCI), 48 h
Assay [1] deals with U251 CNS.
Assay [2] has as its system UACC-62 melanoma.
Assay [3] relates to DMS 273 small cell lung.
Assay [4] relates to TK-10 renal.
The subject of assay [5] is EKVX NSCLC.
For assay [6], the system named is SNB-78 CNS.
Assay [7] has as its system HOP-18 NSCLC.
The test system of assay [8] is HCT-116 colon.
The subject of assay [9] is SF-268 CNS.
Assay [10] deals with HOP-62 NSCLC.
Assay [11] relates to MCF7 breast.
In assay [12] the test system is HL-60(TB) leukemia.
Assay [13] has as its system MOLT-4 leukemia.
For assay [14], the system named is ACHN renal.

`CCN(CC)CCO[Si](OCCN(CC)CC)(OCCN(CC)CC)OCCN(CC)CC`: the TGI in [1], in assay [2], in assay [3], in assay [4] and in assay [5] was over 100 µM in each case.

Take `O=C(CCC1CCCCN1)Nc1ccc2c(c1)C(=O)c1ccc(NC(=O)CCN3CCCCC3)cc1C2=O` (configuration not stated): the TGI in assay [1] is 23.8 µM; in assay [6] it was over 100 µM; in assay [7], 9.77 µM; in assay [3] it was 7.55 µM; in assay [8] it was 4.96 µM; in assay [9], 25.4 µM. The TGI in assay [4] is 9.42 µM; in [10], 27.9 µM.

Turning to `COC(=O)C1c2cc3c(c(O)c2C(O)CC1(C)O)C(=O)c1c(O)cc2c(c1C3=O)OC1OC2(C)C(O)C(N(C)C)C1O` (configuration not stated), the TGI is 2.63 µM in assay [11]; over 100 µM in assay [6]; over 100 µM in assay [7]; over 24.9 µM in [12]; over 100 µM in assay [3]; over 100 µM in [13]. The TGI in assay [10] is over 100 µM.

On to `NC(=O)Oc1ccccc1`, for which the TGI in [11], in assay [1], in assay [12], in assay [8], in assay [9] and in [13] was over 100 µM throughout. Further, the TGI in [4] and in assay [14] was over 100 µM throughout.

Take `CC1OC(=O)C(C(C)C)NC(=O)C(C(C)C)OC(=O)C(C(C)C)NC(=O)C(C)OC(=O)C(C(C)C)NC(=O)C(C(C)C)OC(=O)C(C(C)C)NC(=O)C(C)OC(=O)C(C(C)C)NC(=O)C(C(C)C)OC(=O)C(C(C)C)NC1=O` (configuration not stated): the TGI stood at 0.0686 µM in [11]; 1.05 µM in assay [1]; 4.46 µM in assay [6]; 5.58 µM in assay [2]; 0.0539 µM in [7]; 0.0141 µM in assay [3]. The TGI in assay [8] was 2.91 µM; in assay [9] it was 5.09 µM; in [13], 0.00858 µM; in assay [14] it was under 0.0001 µM; in assay [10], 0.0144 µM. Moreover, the GI50 in assay [1], in assay [2], in [12], in assay [13], in assay [5] and in assay [10] was under 0.0001 µM throughout.

In the case of `CCOC(C)OC1CC(n2cc(C)c(=O)[nH]c2=O)OC1CO` (configuration not stated), the TGI in assay [1], in [6], in assay [7], in [12], in assay [3] and in [8] was over 100 µM each time. The TGI in assay [9], in assay [13], in [4], in [14], in assay [5] and in [10] was over 100 µM in each case.

For `CN1CN(C(=O)N2CN(C)C(=O)N(C)C2)CN(C)C1=O`, the TGI in assay [6], in assay [2], in assay [7], in assay [12], in assay [8] and in assay [9] was over 100 µM each time. The TGI in assay [13], in assay [14], in assay [5] and in [10] was over 100 µM throughout.
